Patent US20020115721A1, “Esters of alkycarboxy amino acids as prodrugs of modulators of the kainate receptor” (Annovis, Inc., priority 2000, published 2002)
Each block holds one compound with its values, some of them ahead of it.

Experiments:
Sprague-Dawley rats [1] = experiment: Rat allodynia/hyperalgesia pain model after capsaicin; format: in vivo
Protocol: This test is to determine the extent of protection by a test compound to neuropathic pain sensations. With the rat standing on an elevated perforated floor, mechano-allodynia is measured by applying from beneath a graded series of von Frey hairs to the mid-plantar region of the effected paws. The hair that evokes at least one withdrawal response is designated the threshold level when compared to the sham treated nerve. Alternatively, the paw can be illuminated with a noxious radiant heat and the time to paw withdrawal is measured.
The model is described by Bennett, Neuro. Report 5, 1438-1440 (1994), and references cited therein. He measures changes in withdrawal latency after chronic constriction injury; a rat is prepared by bilaterally exposing the sciatic nerves on both thighs. On one side, loosely fitting constrictive ligatures are tied around the nerve; the other side is sham manipulated but not ligated. The model can also be used to measure increases in sensitivity and decreases in latency after injection of an irritating or pain inducing substance such as capsaicin or carrageenan.
A total of 40 adult male Sprague-Dawley rats, 250-300 g, were used. Baseline measures of withdrawal responses evoked by heat and mechanical stimuli were determined for each hind paw and obtained for at least 4 consecutive days until withdrawal and latency responses were stable. Four groups of 10 rats each were sorted to establish equivalent baseline mean responses to heat and mechanical stimuli. Each group was randomly assigned to 1 of 4 treatment conditions: vehicle, 10, 50, or 100 mg/kg compound i.p. On test day, withdrawal responses to heat and mechanical stimuli were measured before intraperitoneal injection of the treatment condition. […] Capsaicin (10 μl of 0.1%, intraplantar) was administered 30 minutes after i.p. injection. Withdrawal responses to heat and mechanical stimuli were again measured 5 and 30 minutes post capsaicin. The contralateral paw served as an internal control. The experimenter was blind to the treatment condition.
The prodrugs were tested in the allodynia model after inducing pain with capsaicin.
A total of 24 adult male Sprague-Dawley rats, 250-300 g., were used and treated according to protocol described above using (2S,4R)-4-methyl glumatic acid methyl ester.
A total of 33 adult male Sprague-Dawley rats, 250-300 g., were treated according to protocol described above using (2S,4R)-4-methyl glumatic acid ethyl ester. The concentrations of the compound were […].

Sprague-Dawley rats [2] = experiment: as above; format: in vivo; settings: 1 hour before capsaicin
[3] = Prodrug hydrolysis to the acid form in plasma; format: in vitro ADME
Excerpt: The ester bond in any of the disclosed prodrug compositions can be readily cleaved in vivo. Therefore, prodrug compositions of Formula I can be hydrolyzed to the corresponding acids form in plasma.

[4] = cited from earlier work
[5] = target: glycine site of the NMDA receptor (Homo sapiens, UniProt Q05586); settings: cited from earlier work
[6] = test system: AMPA receptor as compared to the kainate receptor; settings: selectivity ratio; cited from earlier work

- melting point: 138 to 139 °C
SMILES: COC(=O)[C@H](N)C[C@H](C)C(=O)OC.Cl

- melting point: 158 to 160 °C
SMILES: CCOC(=O)[C@H](N)C[C@H](C)C(=O)OCC.Cl

SMILES: C[C@H](C[C@H](N)C(=O)O)C(=O)O [Compound 1, (2S,4R)-4-Methyl glutamic acid]
- blocking hyperalgesia to heat (Sprague-Dawley rats [1]; 10, 50, 100 mg/kg i.p., capsaicin): effective
- blocking mechanical hyperalgesia (Sprague-Dawley rats [1]; 10, 50, and 100 mg/kg i.p., capsaicin intraplantar 30 minutes after injection): effective
- mechanical hyperalgesia versus vehicle (p<0.05) (Sprague-Dawley rats [1]; 5 minutes post capsaicin, all doses (10, 50, 100 mg/kg i.p.)): significantly different from vehicle
- hyperalgesia to heat versus vehicle (Sprague-Dawley rats [1]; 30 minute time point): not significantly different from vehicle
- mechanical hyperalgesia versus vehicle (p<0.05) (Sprague-Dawley rats [1]; 30 minutes post capsaicin, 100 mg/kg i.p. only): remained significantly different from vehicle
- hyperalgesia to heat versus vehicle (p<0.05) (Sprague-Dawley rats [1]; all three doses (10, 50, 100 mg/kg i.p.), early time point): significantly different from vehicle

- melting point: 138 to 139 °C
- hydrolysis to (2S,4R)-4-methyl glutamic acid (1) [3]: readily hydrolyzed
SMILES: COC(=O)[C@H](C)C[C@H](N)C(=O)OC.Cl [Compound 2, (2S,4R)-4-Methyl Glutamic Acid Dimethyl Ester Hydrochloride]
- prevention of development of hyperalgesia (Sprague-Dawley rats [2]; 0.1 mg/kg i.p.): no effect
- hyperalgesia prevention (Sprague-Dawley rats [2]; 1 mg/kg i.p.): about 40%
- prevention of development of hyperalgesia (Sprague-Dawley rats [2]; 10 and 50 mg/kg i.p.): totally prevented
- hyperalgesia to mechanical stimuli (p<0.05) (Sprague-Dawley rats [1]; 10 mg/kg i.p., capsaicin): reduced
- hyperalgesia to radiant heat (p<0.05) (Sprague-Dawley rats [1]; 10 mg/kg i.p., capsaicin): reduced

- melting point: 158 to 160 °C
SMILES: CCOC(=O)[C@H](C)C[C@H](N)C(=O)OCC.Cl [Compound 3, (2S,4R)-4-Methyl Glutamic Acid Diethyl Ester Hydrochloride]
- blocking hyperalgesia to heat (Sprague-Dawley rats [1]; 0.1 to 50 mg/kg i.p., capsaicin): not effective
- blocking mechanical hyperalgesia (p<0.05) (Sprague-Dawley rats [1]; 10 and 50 mg/kg i.p., capsaicin): effective

SMILES: NS(=O)(=O)c1cccc2c3c(cc([N+](=O)[O-])c12)=NC(=O)C(=O)N=3 [NBQX, 6-nitro-7-sulfamoylbenzoquinoxaline-2,3-dione]
- solubility in water [4]: very limited
- binding to glycine site of NMDA receptor [5]: non-specifically binds
- affinity for AMPA receptor as compared to kainate receptor [6]: thirty
